For 16 compounds, IC50 and inhibition in vivo results are on record in ChEMBL document CHEMBL4265881, “Synthesis and bioactivity of 3,5-dimethylpyrazole derivatives as potential PDE4 inhibitors” (Bioorg Med Chem Lett, 2018).

Assay [1] concerns the target 3',5'-cyclic-AMP phosphodiesterase 4B (Homo sapiens, UniProt Q07343). As to the kind of experiment: Inhibition of human U937 cells-derived PDE4B using [3H]-cAMP as substrate measured after 30 mins.
Assay [2] can be described thus: Inhibition of PDE4 in human PBMC assessed as reduction in LPS-stimulated TNFalpha release preincubated for 30 mins followed by LPS stimulation for 18 hrs by TR-FRET assay. It is filed as cell-based. For orientation: Time-resolved FRET reads energy transfer from a long-lived donor to a nearby acceptor.
The target in assay [3] is 3',5'-cyclic-AMP phosphodiesterase 4D (Homo sapiens, UniProt Q08499). As to the kind of experiment: Inhibition of human U937 cells-derived PDE4D using [3H]-cAMP as substrate measured after 30 mins.
Sequence of 3',5'-cyclic-AMP phosphodiesterase 4D (Q08499 whole entry): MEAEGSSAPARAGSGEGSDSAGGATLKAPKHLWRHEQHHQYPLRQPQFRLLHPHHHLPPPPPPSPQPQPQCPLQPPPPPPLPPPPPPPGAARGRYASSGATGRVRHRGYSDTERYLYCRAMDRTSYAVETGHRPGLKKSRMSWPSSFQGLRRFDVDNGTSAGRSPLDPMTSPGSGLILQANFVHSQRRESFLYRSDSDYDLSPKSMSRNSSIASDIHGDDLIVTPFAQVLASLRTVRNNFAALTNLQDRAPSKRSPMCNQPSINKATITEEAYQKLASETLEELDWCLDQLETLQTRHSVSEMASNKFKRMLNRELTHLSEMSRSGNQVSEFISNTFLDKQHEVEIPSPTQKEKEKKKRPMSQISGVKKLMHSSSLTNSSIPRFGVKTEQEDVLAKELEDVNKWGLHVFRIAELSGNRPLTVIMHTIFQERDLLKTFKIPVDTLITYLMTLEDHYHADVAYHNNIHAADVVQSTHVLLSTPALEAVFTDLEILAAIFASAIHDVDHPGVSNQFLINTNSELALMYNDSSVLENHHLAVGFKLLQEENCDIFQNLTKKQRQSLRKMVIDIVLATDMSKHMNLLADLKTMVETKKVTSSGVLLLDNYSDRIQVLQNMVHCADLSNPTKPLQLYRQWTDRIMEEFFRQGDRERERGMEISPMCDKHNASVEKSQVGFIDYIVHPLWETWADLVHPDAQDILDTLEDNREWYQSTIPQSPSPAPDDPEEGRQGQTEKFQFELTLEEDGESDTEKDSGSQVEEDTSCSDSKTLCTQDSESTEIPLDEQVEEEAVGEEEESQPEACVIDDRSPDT
The next assay has as its system Rattus norvegicus. As to the kind of experiment: Anti-inflammatory activity in Sprague-Dawley rat model of LPS-induced asthma/COPD assessed as inhibition of neutrophilia in BALF at 10 mg/kg, po. It is filed as functional.
The subject of the next assay is Mus musculus. Kind of assay: Anti-inflammatory activity in Swiss albino mouse model of sepsis assessed as inhibition of LPS-induced TNFalpha release at 10 mg/kg, po. It is filed as functional.

Usually IC50 stands for the concentration at which inhibition is half-maximal. The term inhibition in vivo denotes how much of the control response was suppressed.

Sequence of 3',5'-cyclic-AMP phosphodiesterase 4B (Q07343 whole entry): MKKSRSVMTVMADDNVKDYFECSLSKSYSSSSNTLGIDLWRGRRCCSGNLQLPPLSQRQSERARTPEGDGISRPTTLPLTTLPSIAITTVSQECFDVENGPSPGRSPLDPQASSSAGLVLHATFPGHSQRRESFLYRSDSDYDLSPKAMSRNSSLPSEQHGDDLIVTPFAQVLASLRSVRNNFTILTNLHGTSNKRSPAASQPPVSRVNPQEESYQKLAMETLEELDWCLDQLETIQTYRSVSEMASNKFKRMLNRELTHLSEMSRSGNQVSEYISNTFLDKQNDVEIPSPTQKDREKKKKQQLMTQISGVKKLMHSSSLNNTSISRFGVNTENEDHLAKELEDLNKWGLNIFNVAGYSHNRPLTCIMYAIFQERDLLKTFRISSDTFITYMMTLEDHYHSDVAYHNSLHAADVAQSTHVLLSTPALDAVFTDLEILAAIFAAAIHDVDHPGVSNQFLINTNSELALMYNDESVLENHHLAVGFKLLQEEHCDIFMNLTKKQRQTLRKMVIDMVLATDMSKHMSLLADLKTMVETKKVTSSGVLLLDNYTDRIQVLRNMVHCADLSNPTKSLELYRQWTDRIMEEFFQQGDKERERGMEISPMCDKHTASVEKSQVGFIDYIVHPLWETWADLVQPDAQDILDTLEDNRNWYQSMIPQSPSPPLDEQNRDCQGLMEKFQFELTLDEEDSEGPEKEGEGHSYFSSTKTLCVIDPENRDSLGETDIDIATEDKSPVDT

Regarding `Cc1cc(C)n(C(=O)c2ccc(-c3ccc(Br)cc3)o2)n1`, the IC50 in assay [1] came to 51.1 µM; in assay [2] it was 154 µM.

As to `Cc1cc(C)n(C(=O)c2ccc(-c3ccc(F)cc3)o2)n1`, the half-maximal inhibitory concentration (IC50) in assay [1] amounted to 7.2 µM; in assay [2], 24.3 µM; in assay [3] it was 49.3 µM.

Turning to `Cc1cc(C)n(C(=O)c2ccc(-c3ccccc3[N+](=O)[O-])o2)n1`, the values for the IC50 in assay [1] and in assay [2] were 62.7 µM and 168 µM, respectively.

Take `Cc1cc(C)n(C(=O)c2ccc(-c3ccc(F)cc3F)o2)n1`: the inhibition in vivo at 10 mg/kg in the assay with Rattus norvegicus is 24.2%; in the assay on Mus musculus, 29.6%. Further, the half-maximal inhibitory concentration (IC50) in assay [1] was 3.2 µM; in assay [2], 19.2 µM; in assay [3] it was 19.6 µM.

Regarding `Cc1cc(C)n(C(=O)c2ccc(-c3ccccc3F)o2)n1`, the IC50 was 45.3 µM in assay [1] and 98.2 µM in assay [2].

Consider `Cc1cc(C)n(C(=O)c2ccc(-c3ccc(Cl)cc3)o2)n1`, for which the values for the half-maximal inhibitory concentration (IC50) in assay [1], in assay [2] and in assay [3] were 3.9 µM, 25.1 µM and 26.4 µM, respectively.

As to `Cc1cc(C)n(C(=O)c2ccc(-c3ccccc3)o2)n1`, the IC50 came to 70.3 µM in assay [1] and 178 µM in assay [2].

`Cc1cc(C)n(C(=O)c2ccc(-c3ccc([N+](=O)[O-])cc3)o2)n1`: the concentration for half-maximal inhibition (IC50) in assay [1] is 15.4 µM; in assay [2], 41.7 µM; in assay [3] it was 87.3 µM.

With `Cc1cc(C)n(C(=O)c2ccc(-c3cccc(Cl)c3)o2)n1`, the IC50 in assay [1] came out at 20.9 µM; in assay [2], 58.4 µM.

For the compound `COc1ccc(-c2ccc(C(=O)n3nc(C)cc3C)o2)cc1`, the inhibition in vivo at 10 mg/kg with Rattus norvegicus stood at 36.5%; with Mus musculus it was 43.1%. Besides, the IC50 is 1.7 µM in assay [1], 10.4 µM in assay [2] and 9.6 µM in assay [3].

As for `Cc1cc(C)n(C(=O)c2ccc(-c3cccc(F)c3)o2)n1`, the IC50 amounted to 20.2 µM in assay [1] and 70.8 µM in assay [2].

Regarding `COc1ccc(C2CNC(=O)C2)cc1OC1CCCC1` (centres undefined) [ROLIPRAM], the inhibition in vivo at 10 mg/kg in the assay on Rattus norvegicus was found to be 32.8%; with Mus musculus, 41.7%. The IC50 in assay [2] came to 16.5 µM.

Consider `Cc1cc(C)n(C(=O)c2ccc(-c3cccc([N+](=O)[O-])c3)o2)n1`, for which the results for the IC50 in assay [1] and in assay [2] were 35.9 µM and 69.3 µM, respectively.

Turning to `Cc1cc(C)n(C(=O)c2ccc(-c3c(F)cccc3F)o2)n1`, the IC50 in assay [1] came to 14.5 µM; in assay [2], 88.7 µM; in assay [3], 88.2 µM.

On to `Cc1ccc(-c2ccc(C(=O)n3nc(C)cc3C)o2)cc1`, for which the concentration for half-maximal inhibition (IC50) was found to be 8.4 µM in assay [1], 37.1 µM in assay [2] and 52.9 µM in assay [3].

On to `Cc1cc(C)n(C(=O)c2ccc(-c3ccccc3Cl)o2)n1`, for which the IC50 came out at 52.4 µM in assay [1] and 112 µM in assay [2].
